Measurements published in patent US8974815B2, “Fibrous membrane for biomedical application based on poly(ester-amide)s” (Cornell University, priority 2005, dated 2015).

Assays:
α-chymotrypsin = α-chymotrypsin (Bos taurus, UniProt P00766); assay: In vitro release of 4-amino-TEMPO in α-chymotrypsin solution (ESR); type: in vitro ADME
Description: (§1) The in vitro release of 4-amino-TEMPO nitroxyl radicals from electrospun PEA fibers was investigated by immersing ˜300 mg 8-Phe-4 electrospun nano fibrous mat into a glass vial filled with 5 mL of 0.1M phosphate buffer solution of pH=7.42. The 8-Phe-4 nano fibrous mat was pre-loaded with 4-amino-TEMPO at a 10.0 mg 4-amino-TEMPO per g 8-Phe-4 and electrospun from a 39% wt/vol 8-Phe-4 solution in the mixture solvent of chloroform and DMF at volume ratio of 2 to 1. The glass vial was then placed in a water bath shaker maintained at 37° C. and 100 cycles/min. 10 μl of supernant of the vial was taken at a determined time and the amount of 4-amino-TEMPO nitroxyl radicals was measured by electron spin resonance (ESR) as a function of incubation time.
(§2) Three samples were taken for each measurement and the average results were reported. The ESR spectra at X-band were obtained from a Bruker 200D SRC spectrometer operating at 9.6 GHz, using 100 KHz modulation. The ESR signal intensity which is proportional to the mass of 4-amino-TEMPO nitroxyl free radical was obtained by a double integration of the recorded first derivative signals. A linear correlation (γ^2=0.9996) between the ESR signal intensity and the mass of nitroxyl radical ranging from 1.67 μg to 0.05 μg was obtained. The actual amount of 4-amino-TEMPO nitroxyl radicals loaded into the electrospun fibers was also determined by a complete dissolution of 8-Phe-4/4-amino-TEMPO electrospun fibrous membranes in DMF and the actual pre-loaded 4-amino-TEMPO amount within 8-Phe-4 fibers was calculated from the established calibration curve. The nitroxyl radicals released was measured in triplicates and expressed in the percentage of the initial pre-loaded amounts in the 8-Phe-4 fibers.
4-amino-TEMPO was physically pre-loaded into the 640 nm 8-Phe-4 electrospun fibers at a loading level of 10.0 mg TEMPO per gram of 8-Phe-4. Since 4-amino-TEMPO is a free radical, the actual amounts of 4-amino-TEMPO loaded into the 8-Phe-4 electrospun nanofibers and its subsequently release from the fibers in either PBS buffer or a α-chymotrypsin solution (0.1 mg/mL α-chymotrypsin) were quantified by ESR.

[1] = In vitro release of 4-amino-TEMPO in PBS medium (ESR); type: physicochemical
Description: as §1, §2

[2] = Gallium nitrate release from 8P4 fabric (conductivity); type: physicochemical; conditions: from 8P4 fabric at 1.2, 1.0 and 0.2 g gallium nitrate per g 8P4; water extraction
Description: In order to determine release profiles of gallium nitrate from the fabric, a calibration curve was prepared as follows: Solutions of known concentrations of gallium nitrate in chloroform (not completely dissolved) were extracted with 10-mL deionized water. The electrical resistance of the aqueous solutions from extraction was measured. A calibration curve was constructed based on conductivity (inverse of measured resistance) and known concentration of gallium nitrate.
Drug release was established at 1, 2, 3, 4, 5, 8, 12, 18 and 28 days by extraction with water and measuring conductivity and generating gallium nitrate release profiles for 1.2 grams of gallium nitrate per gram (8P4), 1.0 gram of gallium nitrate per gram (8P4) and 0.2 am of gallium nitrate per gram (8P4). In each case there was a burst of drug release within the first 5 days.

Compound	release slope in α-chymotrypsin relative to PBS alone (α-chymotrypsin)	slope of the initial linear part of the release profile (α-chymotrypsin; 0.1 mg/mL α-chymotrypsin solution, 37° C.)	incorporated TEMPO released (α-chymotrypsin; within the 1st hr, α-chymotrypsin solution)	time to complete release (α-chymotrypsin; α-chymotrypsin solution)	slope of the initial linear part of the release profile ([1]; PBS medium alone, 37° C.)	4-amino-TEMPO still entrapped inside the 8-Phe-4 matrix ([1]; after one month in PBS)	initial burst release, of total loaded nitroxyl radical ([1]; first day, from 640 nm 8-Phe-4 nanofibers, pH 7.42 PBS, 37° C.)	residual nitroxyl radical in dissolved incubated membrane, of initial loading level ([1]; one-month incubated membrane dissolved in DMF, ESR)	period of burst of drug release [2]
CC1(C)CC(N)CC(C)(C)N1[O] [4-amino-TEMPO, 4-amino-2,2,6,6-tetramethylpiperadine-1-oxy radical]	more than 35 times	72 %/day	more than 23%	≤ 120 h	2.0 %/day	more than 60%	about 14%	about 58%	
O=[N+]([O-])[O-].O=[N+]([O-])[O-].O=[N+]([O-])[O-].[Ga+3] [gallium nitrate, Gallium (III) nitrate hydrate]									≤ 5 days
